# Reference: patent US20260021085A1, “CYCLOALKYL CARBOXYLIC ACID DERIVATIVES AS INHIBITORS OF GLYCOGEN SYNTHASE 1 (GYS1) AND METHODS OF USE THEREOF” (Maze Therapeutics, Inc., priority 2022, published 2026)
# Columns and labels:
# [1] = molecular target: human GYS2 (Homo sapiens (Human), UniProt P54840); test: GYS2 coupled enzyme assay (PK/LDH); type: biochemical; details: recombinant hGYS2/GN1 protein; geometric mean of at least 2 assay runs
# Description: (§1) The GYS2 coupled enzyme assay is a kinetic biochemical assay that indirectly quantifies the rate of glycogen synthesis by coupling the conversion of GYS2 substrate UDP-glucose into UDP with downstream enzymatic reactions. UDP is released from UDP-glucose as glucose monomers are linked into the growing glycogen strand by GYS2. The coupled assay then proceeds with pyruvate kinase utilizing UDP and phospho (enol) pyruvate (PEP) to form pyruvate. Lactate dehydrogenase then converts pyruvate and NADH into lactate and NAD+. Oxidation of NADH to NAD+ can be measured continuously with a plate reader by quantifying the decrease in NADH absorbance at 340 nm over time.
# Compounds that inhibit the hGYS2 enzyme and, subsequently, the downstream conversion of NADH to NAD+, were tested using assay ready plates (black, clear bottom 384 well plates) in a final DMSO reaction volume of 2.5% DMSO. The Assay Buffer contained 50 mM Tris pH 7.5, 2 mM MgCl2, and 100 mM KCl. Fresh stocks of BSA at a final concentration of 0.02% and TCEP 1 mM were added before splitting buffer into hGYS2 buffer and substrate buffer. To the hGYS2 buffer, rabbit liver glycogen was added at a final concentration of 0.2% glycogen. Glucose-6-Phosphate was added at 2 mM, recombinant hGYS2/GN1 protein was added at 200 nM to the substrate buffer, phosphoenolpyruvate (PEP) was added at 2 mM, UDP-Glucose was added at 2 mM, NADH was added at 0.6 mM, and Pyruvate Kinase/Lactate Dehydrogenase was added at 20 units/mL. The reaction was initiated by mixing hGYS2 buffer and substrate buffer at a 1:1 ratio. Both buffers were plated using a liquid dispensing device with hGYS2 buffer plated first followed by the substrate buffer. Plates were spun briefly to eliminate air bubbles and are immediately read in continuous mode at an absorbance of 340 nm, for 10 time points in one-minute increments, for a total of 10 minutes. The slope from these 10 time points was normalized to the positive and negative control wells.
# (§2) Unless otherwise specified, IC50 values are reported as the geometric mean of at least 2 assay runs on separate days. […] Unless otherwise specified, IC50 values are reported as the geometric mean of at least two assay runs on separate days. Each run represents the average of a technical replicate, where each compound was assayed twice in the same plate.
# [2] = molecular target: hGYS1 enzyme, glycogen synthesis in HeLa cells (Homo sapiens (Human), UniProt P13807); test: GYS1 cell based assay (glycogen synthesis in HeLa cells, Glucose-glo); details: starved HeLa cells, 24 h incubation; geometric mean of at least 2 assay runs; read-out: Cellular IC50
# Description: The GYS1 cell based assay is a bioluminescent assay that quantifies the glucose resulting from glycogen digestion; the quantified glucose is an indirect measure of GYS1 glycogen synthesis. Newly synthesized glycogen is digested using Glucoamylase; the resulting glucose is quantified by using the Glucose-glo assay kit from Promega. Glucose-glo works by coupling glucose oxidation and NADH production with a bioluminescent system that is activated with NADH. Glucose is oxidized by Glucose dehydrogenase and the reaction reduces NAD+ to NADH; NADH activates Reductase which reduces a pro-luciferin Reductase Substrate to luciferin. Luciferin is detected in a luciferase reaction using Ultra-Glo rLuciferase and ATP, and the luminesce produced is proportional to the glucose in the sample. The luminescence is measured as a single point read in a plate reader.
# Compounds that inhibit the hGYS1 enzyme and, subsequently, the glycogen synthesis in cells, were tested using assay ready plates (white, clear bottom 384 well plates) in a final DMSO reaction volume of 1% DMSO. Compounds in the assay ready plates were mixed with media with no additives, except for 20 mM glucose prior to cell addition. HeLa cells were starved in media with no additives, except for 1× Glutamax for 24 h. Starved HeLa cells were plated, in a 1:1 ratio to the media in the assay ready plate and incubated for 24 h at 37° C. and 5% CO2. Cells were washed in 1×PBS buffer and lysed in lysis buffer containing 50% 1×PBS and 25% 0.3 N HCl of the final volume in the well or reaction volume; cells were incubated with lysis buffer for 10 minutes and quenched with the remaining 25% of the reaction volume that consisted of 450 mM Tris pH 8.0. Lysates were mixed in a 1:1 ratio with Glucoamylase in 100 mM Sodium Acetate buffer, pH 5.3; the mixture was incubated for 1 h at 37° C. The digested lysate was mixed in a 1:1 ratio with Glucose-glo detection mixture as per vendor recommendations (Luciferase detection buffer, Reductase, Reductase substrate, Glucose dehydrogenase, and NAD) in read-out plates (solid white 384-well plates) and incubated for 1 h at RT. The plates were read using a plate reader with luminescence capabilities. Each compound concentration Relative Luminescence Unit (RLU) was averaged and normalized to the average RLU of the positive and negative controls to obtain a percentage inhibition. The normalized data vs. concentration was plotted; to determine the half-maximal concentration (IC50), the Levenberg-Marquardt algorithm was used to fit a Hill equation to the dose response data.
# as §2
# [3] = molecular target: human GYS1 (Homo sapiens (Human), UniProt P13807); test: GYS1 coupled enzyme assay (PK/LDH); type: biochemical; details: recombinant hGYS1/GN1 protein; geometric mean of at least 2 assay runs
# Description: as §1, with “GYS1” for “GYS2”, “GYS1.” for “GYS2.”
# Compounds that inhibit the hGYS1 enzyme and, subsequently, the downstream conversion of NADH to NAD+, were tested using assay ready plates (black, clear bottom 384 well plates) in a final DMSO reaction volume of 2.5% DMSO. The Assay Buffer contained 50 mM Tris pH 7.5, 2 mM MgCl2, and 100 mM KCl. Fresh stocks of BSA at a final concentration of 0.02% and TCEP at 1 mM were added before splitting buffer into hGYS1 buffer and substrate buffer. To the hGYS1 buffer, rabbit liver glycogen was added at a final concentration of 0.2% glycogen. Glucose-6-Phosphate was added at 1 mM, recombinant hGYS1/GN1 protein was added at 50 nM to the substrate buffer, phosphoenolpyruvate (PEP) was added at 2 mM, UDP-Glucose was added at 0.8 mM, NADH) was added at 0.6 mM, and Pyruvate Kinase/Lactate Dehydrogenase was added at 20 units/mL. The reaction was initiated by mixing hGYS1 buffer and substrate buffer at a 1:1 ratio. Both buffers were plated using a liquid dispensing device with hGYS1 buffer plated first followed by the substrate buffer. Plates were spun briefly to eliminate air bubbles and are immediately read in continuous mode at an absorbance of 340 nm, for 10 time points in one-minute increments, for a total of 10 minutes. The slope from these 10 time points was normalized to the positive and negative control wells.
# Unless otherwise specified, IC50 values are reported as the geometric mean of at least 2 assay runs on separate days. Each run represents the average of a technical replicate, where each compound was assayed twice in the same plate.
# Sequence of human GYS2 (P54840 whole entry): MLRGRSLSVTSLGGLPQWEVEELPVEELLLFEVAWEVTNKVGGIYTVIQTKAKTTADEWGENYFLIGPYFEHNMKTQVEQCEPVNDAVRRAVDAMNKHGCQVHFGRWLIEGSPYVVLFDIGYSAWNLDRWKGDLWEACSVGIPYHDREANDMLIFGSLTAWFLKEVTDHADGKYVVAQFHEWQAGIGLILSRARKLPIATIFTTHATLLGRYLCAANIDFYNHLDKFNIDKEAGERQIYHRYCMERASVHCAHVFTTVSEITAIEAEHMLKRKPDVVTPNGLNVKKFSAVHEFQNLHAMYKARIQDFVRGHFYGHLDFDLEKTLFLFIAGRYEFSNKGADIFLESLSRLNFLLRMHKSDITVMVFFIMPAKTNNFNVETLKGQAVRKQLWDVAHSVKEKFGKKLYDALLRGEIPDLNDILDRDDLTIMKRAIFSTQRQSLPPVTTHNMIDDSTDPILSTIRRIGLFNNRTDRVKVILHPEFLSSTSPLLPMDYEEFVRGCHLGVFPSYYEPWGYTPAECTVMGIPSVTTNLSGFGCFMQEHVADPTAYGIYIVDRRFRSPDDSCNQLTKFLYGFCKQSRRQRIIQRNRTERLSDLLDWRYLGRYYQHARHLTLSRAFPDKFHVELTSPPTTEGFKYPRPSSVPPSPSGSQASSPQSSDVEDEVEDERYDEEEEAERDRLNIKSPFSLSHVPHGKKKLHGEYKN
# Sequence of human GYS2 (P46976 whole entry partner): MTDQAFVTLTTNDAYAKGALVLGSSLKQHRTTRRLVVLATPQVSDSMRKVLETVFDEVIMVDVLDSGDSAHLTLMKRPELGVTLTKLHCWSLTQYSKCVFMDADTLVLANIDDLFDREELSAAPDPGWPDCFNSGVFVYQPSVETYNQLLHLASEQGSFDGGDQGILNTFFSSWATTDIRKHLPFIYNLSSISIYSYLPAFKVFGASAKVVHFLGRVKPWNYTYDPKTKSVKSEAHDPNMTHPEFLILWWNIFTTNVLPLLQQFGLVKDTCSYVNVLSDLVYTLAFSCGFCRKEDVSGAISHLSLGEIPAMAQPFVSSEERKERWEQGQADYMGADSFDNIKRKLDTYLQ
# Sequence of hGYS1 enzyme, glycogen synthesis in HeLa cells (P13807 whole entry): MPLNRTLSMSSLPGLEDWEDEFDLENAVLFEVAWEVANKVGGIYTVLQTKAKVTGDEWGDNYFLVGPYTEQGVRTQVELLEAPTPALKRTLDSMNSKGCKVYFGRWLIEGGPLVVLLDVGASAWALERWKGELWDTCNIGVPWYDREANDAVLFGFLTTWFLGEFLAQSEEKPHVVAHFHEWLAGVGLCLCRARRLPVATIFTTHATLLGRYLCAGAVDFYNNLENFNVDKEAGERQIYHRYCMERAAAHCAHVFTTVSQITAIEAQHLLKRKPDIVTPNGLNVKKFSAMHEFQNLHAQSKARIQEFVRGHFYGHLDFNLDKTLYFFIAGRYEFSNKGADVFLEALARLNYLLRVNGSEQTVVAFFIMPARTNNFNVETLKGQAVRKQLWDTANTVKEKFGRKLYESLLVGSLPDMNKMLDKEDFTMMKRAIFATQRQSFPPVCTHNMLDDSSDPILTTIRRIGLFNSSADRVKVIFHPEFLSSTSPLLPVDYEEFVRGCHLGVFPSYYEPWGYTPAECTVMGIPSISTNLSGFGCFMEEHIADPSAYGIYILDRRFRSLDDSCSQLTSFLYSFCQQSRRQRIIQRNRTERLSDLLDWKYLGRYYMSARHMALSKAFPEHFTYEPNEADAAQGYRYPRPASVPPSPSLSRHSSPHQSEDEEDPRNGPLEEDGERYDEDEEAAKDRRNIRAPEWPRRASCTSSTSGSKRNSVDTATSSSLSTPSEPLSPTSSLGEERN
# Sequence of human GYS1 (P13807 whole entry): as above
# Sequence of human GYS1 (P46976 whole entry partner): as the sequence (P46976 whole entry partner) above
compound,measurement,setting,value
"O=C(O)[C@H]1CCC[C@H]1C(=O)N[C@@H](c1ccccc1)c1ccc(C2CCC2)c(F)c1 [Compound 18, (1S,2R)-2-(((S)-(4-cyclobutyl-3-fluorophenyl)(phenyl)methyl)carbamoyl)cyclopentane-1-carboxylic acid]",IC50,[1],28.6 µM
same,IC50,[2],16.6 µM
same,IC50,[3],0.384 µM
"CC(C)c1ccc([C@@H](NC(=O)[C@@H]2CCC[C@@H]2C(=O)O)c2cccc3c2NC(=O)CC3)cc1 [Compound 31, (1S,2R)-2-(((R)-(4-isopropylphenyl)(2-oxo-1,2,3,4-tetrahydroquinolin-8-yl)methyl)carbamoyl)cyclopentane-1-carboxylic acid]",IC50,[1],> 100 µM
same,IC50,[2],12.3 µM
same,IC50,[3],1.09 µM
"Cc1ccccc1[C@H](NC(=O)[C@@H]1CCC[C@@H]1C(=O)O)c1ccc(C2CC2)cc1 [Compound 26, (1S,2R)-2-(((R)-(4-cyclopropylphenyl)(o-tolyl)methyl)carbamoyl)cyclopentane-1-carboxylic acid]",IC50,[1],15.5 µM
same,IC50,[2],21.6 µM
same,IC50,[3],0.795 µM
"Cc1ccccc1[C@H](NC(=O)[C@@H]1CCC[C@@H]1C(=O)O)c1ccc(C(C)C)cn1 [Compound 22, (1S,2R)-2-(((S)-(5-isopropylpyridin-2-yl)(o-tolyl)methyl)carbamoyl)cyclopentane-1-carboxylic acid]",IC50,[1],66.7 µM
same,IC50,[2],13.9 µM
same,IC50,[3],1.27 µM
"CC(C)c1ccc([C@@H](NC(=O)[C@@H]2CCC[C@@H]2C(=O)O)c2ccccc2)cc1F [Compound 37, (1S,2R)-2-(((S)-(3-fluoro-4-isopropylphenyl)(phenyl)methyl)carbamoyl)cyclopentane-1-carboxylic acid]",IC50,[1],72.8 µM
same,IC50,[2],3.69 µM
same,IC50,[3],0.236 µM
"O=C(O)[C@H]1CCC[C@H]1C(=O)N[C@@H](c1ccccc1)c1ccc(C2CCC2)cn1 [Compound 15, (1S,2R)-2-(((S)-(5-cyclobutylpyridin-2-yl)(phenyl)methyl)carbamoyl)cyclopentane-1-carboxylic acid]",IC50,[1],> 100 µM
same,IC50,[2],8.49 µM
same,IC50,[3],0.497 µM
"Cc1ccccc1[C@H](NC(=O)[C@@H]1CCC[C@@H]1C(=O)O)c1ccc(C(C)C)c(F)c1 [Compound 23, (1S,2R)-2-(((R)-(3-fluoro-4-isopropylphenyl)(o-tolyl)methyl)carbamoyl)cyclopentane-1-carboxylic acid]",IC50,[1],8.48 µM
same,IC50,[2],5.36 µM
same,IC50,[3],0.166 µM
